# In PMC3513391 (Biochemistry, 2012):
# What was measured:
# [1] = biological target: T1, Homoprotocatechuate 2,3-dioxygenase (FeHPCD), Y257F variant (Brevibacterium fuscum, UniProt Q45135, Y257F); assay: UV-vis spectral change on anaerobic binding
# [2] = biological target: Homoprotocatechuate 2,3-dioxygenase (FeHPCD) (Brevibacterium fuscum, UniProt Q45135); assay: competition with 4NC by UV-vis; type: binding
# [3] = biological target: T1, Homoprotocatechuate 2,3-dioxygenase (FeHPCD), Y257F variant; assay: competition with 4NC by UV-vis; type: binding
SMILES,Kd [1] [µM],Kd [2] [µM],Kd [3] [µM]
"O=[N+]([O-])c1ccc(O)c(O)c1 [4NC, 4-nitrocatechol]",~5,–,–
"O=C(O)Cc1ccc(O)c(O)c1 [HPCA, homoprotocatechuate]",–,< 5,< 5
